Measured values: patent US20060153785A1, “Moisturizers comprising one or more of gamma-polyglutamic acid (gamma-PGA, H form), gamma-polyglutamates and gamma-polyglutamate hydrogels for use in cosmetic or personal care products” (priority 2005, published 2006)

Columns and labels:
[1] = system: outside skin surface of the arm of a test panelist; assay: Moisture retention of skin after peeling off facial moisture mask (capacitance, SHP88); format: in vivo, human (panelists); details: 5.0% moisturizer in facial moisture mask; mask film peeled off after 15 minutes; 23° C., RH 65%
Description: The species and proportions of the ingredients contained in the exemplified facial moisture mask formulation are listed in Table 5.
The samples of 0.2 grams from experimental example 4 were taken and evenly spread over an area of 25 cm^2 on the outside skin surface of the arm of a test panelist, and the film formation time was closely observed and recorded (see Characteristic Properties of N-Carboxybutyl Chitosan. Carbohydr. Polym. 11:307-320, 1989, Muzzarelli, R. A. A. et al.) at 23° C. under an environment of relative humidity (RH) of 65%. A group of 10 panelists participated in this test. In a separate experiment, the mask film formed after 15 minutes was peeled off, then the […] of the skin was measured at 23° C. under an environment of relative humidity of 65% with a probe of the Skin Analysis SHP88 of Courage ^+Khazaka Electronic Gmbh, Germany. The moisture retention of the skin was immediately measured at 23° C. under an environment of relative humidity of 65% with a probe of the Skin Analysis SHP88, and expressed in unit of capacitance increase ratio, %.

[2] = system: tyrosinase; assay: Inhibition of tyrosinase activity (absorbency at 475 nm); format: biochemical; details: 1.0% sample
Description: Although the formation of black pigment melanin on skin is complicated, it is generally realized that tyrosine is oxidized to DOPA (Dihydroxy Phenyalanine) by the catalysis of tyrosinase from melansome of melanocyte. The DOPA is further oxidized and finally converted into colored melanin-protein complex. […] Determination of total absorbency at wavelength of 475 nm: To a 25 ml sample test tube, add 0.9 ml of 0.1M phosphate buffer solution (pH 6.8), 1 ml of γ-polyglutamate (Na^+ form) sample and 1 ml of 0.25 mg/ml tyrosine solution and mix well, then incubate at 37° C. for 10 minutes. […] Sample of the reaction solution is then taken for measuring the absorbency at 475 nm, and recorded as At. • b. Determination of the blank absorbance of tyrosinase solutuion: Replace 0.1 ml of buffer solution with tyrosinase solution, and repeat the same procedure in item (a), and record the absorbency at 475 nm as A1. • c. Replace 1 ml sample solution with buffer solution, and repeat the same procedure in item (a), and record the absorbance at 475 nm as Ab. • d. Determination of total blank absorbance of test solution: Replace 1 ml sample solution with buffer solution, and 0.1 ml of tyrosinase solution with buffer solution, and repeat the procedure in item (a), and record the absorbency at 475 nm as Ao. • e. […]

[3] = system: inside skin surface of a test panelist's arm; assay: Water retention on skin after skin vital moisture cream (capacitance, Skin Analysis SHP88); format: in vivo, human (panelists); details: 5% moisturizer in cream

CC(O)CCO (stereo not shown) [1,3-BG, 1,3-Butyl Glycol]
Capacitance Increase Ratio [1]: 73.2%

O=c1cc(CO)occ1O [Kojic Acid]
Inhibition of Tyrosinase Activity [2]: 100.0%

CC(O)CO (stereo not shown) [Propylene Glycol]
Capacitance Increase Ratio ([3]; time 0 min): 0%
Capacitance Increase Ratio ([3]; time 5 min): 105%
Capacitance Increase Ratio ([3]; time 10 min): 57%
Capacitance Increase Ratio ([3]; time 20 min): 51%
Capacitance Increase Ratio ([3]; time 40 min): 40%
Capacitance Increase Ratio ([3]; time 80 min): 38%
Capacitance Increase Ratio ([3]; time 120 min): 36%

O=C1O[C@H]([C@@H](O)CO)C(O)=C1O [Vitamin C]
Inhibition of Tyrosinase Activity [2]: 99.4%
